Assay results reported in patent EP0934745B1, “Use of androsterone derivatives for inhibiting DNA binding of ap-1 and airway smooth muscle proliferation” (CHARLOTTE-MECKLENBURG HOSPITAL doing business as Carolinas …, priority 1998, dated 1999).

Target: T1, glucose-6-phosphate dehydrogenase (G6PDH) (Rattus norvegicus, UniProt P05370)
T1 construct: endogenous in cells; host or cells: primary rat tracheal (airway) smooth muscle cells
Assay: G6PDH activity in airway smooth muscle cell lysates, inhibitors added to the lysate
Format: biochemical
Conditions: 100 µl, read-out: PERCENT INHIBITION OF GLUCOSE 6-PHOSPHATE DEHYDROGENASE ACTIVITY
Method: After 1 hour cells were lysed and G6PDH activity was assayed as described below. In other experiments, G6PDH activity was measured in cell lysates prepared from untreated confluent cultures and treated in vitro with DHEA or 16α-BrEA added to the reaction mixture in 5 µl DMSO. […] Ribonucleosides or deoxyribonucleosides were dissolved in 0.5 ml of 1 N HCl and added to DMEM. The pH of the medium was adjusted to 7.1 by titration with 1 N NaOH, and medium was then sterilized by passage through a […] filter. Growth was measured by MTT reduction after 24, 48 and 96 hours.
To determine if DHEA or its analogs induced programmed cell death, confluent cultures in 6 well plastic plates were treated with 50 or 250 µM DHEA, 10 or 50 µM 16α-BrEA, or vehicle (25 µl DMSO). After 2 hours cells were washed twice with DPBS and scraped on ice into 1.5 ml microfuge tubes and centrifuged 250 g for 5 minutes at 4°C. The cell pellet was gently resuspended in 30 µl DPBS and lysed by addition of 30 µl lysis buffer (80 mM EDTA, 1.6% [wt/vol] sodium lauryl sarcosinate and 5 mg/ml proteinase K in 200 mM Tris-HCl buffer, pH 8.0). Lysate was incubated at 50°C for 1.5 hours. RNAse A (0.2 mg/ml) was added and the lysate was incubated for another 30 minutes at 37°C. DNA bands were separated along with a DNA ladder standard on a 1% agarose gel at 60 V for 1 hour, intercalated with ethidium bromide, and visualized and photographed under ultraviolet light. Measurement of Glucose-6-Phosphate Dehydrogenase Activity. Cultures were washed three times with cold DPBS on ice, scraped into ice cold buffer (10 mM MgCl2 in 50 mM Tris, pH 8.0) and sonicated on ice. G6PDH activity was then assayed by the method of Jones and Andrews (Jones, J.T., and Andrews, S.G., "Glucose-6-phosphate dehydrogenase activity in somatic and germinal cells of the mouse testis," J. Reproduc. Fertility, 54, 357-362 (1978)) in a reaction mixture containing 50-200 µl cell lysate, 20 µl of 10 mM β-nicotinamide adenine dinucleotide phosphate (NADP) and 20 µl of 10 mM D-glucose-6-phosphate (G6P) in a total volume of 1 ml buffer (10 mM MgCl2 in 50 mM Tris, pH 8.0). The reaction was initiated by addition of G6P. The linear increase in absorbance at 340 nm was monitored at 25°C for 300 seconds. Activity was expressed as units/mg protein, where 1.0 unit will oxidase 1.0 µmole of G6P to 6-phospho-D-gluconate per min in the presence of NADP. Protein was measured using the BCA protein assay (Rockford, IL). Immunoblot Assay for p21^ras and c-fos Proteins. For measurement of p21^ras, cells were washed twice-with cold DPBS and swelled on ice for 15 minutes with 500 µl cold lysis buffer (10 mM HEPES, 1 mM MgCl2, 1 mM EDTA, 1 µM pepstatin, 2 µg/ml aprotinin, and 1 mM phenylmethylsulfonyl fluoride). See Schulz and Nyce (1991), supra. Cells were then scraped into 1.5 ml polypropylene tubes, homogenized and clarified by centrifugation at 3,000 g for 1 minute at 4°C. The postnuclear supernatant was centrifuged 100,000 g for 30 minutes at 4°C. Supernatants were collected and pelleted membranes were resuspended in detergent buffer (1% Triton X-100, 1% sodium deoxycholate, 0.1% SDS, 150 mM NaCl, 1 µM pepstatin, 2 µg/ml aprotinin and 1 mM phenylmethylsulfonyl fluoride in 25 mM Tris, pH 7.4). Aliquots of supernatant and membrane fractions were removed for protein determination using the BCA protein assay. […]
Activity is expressed as % inhibition of DMSO vehicle-treated controls by 16α-bromoepiandrosterone (BrEA) or dehydroepiandrosterone (DHEA). […]

T1 sequence (P05370 whole entry): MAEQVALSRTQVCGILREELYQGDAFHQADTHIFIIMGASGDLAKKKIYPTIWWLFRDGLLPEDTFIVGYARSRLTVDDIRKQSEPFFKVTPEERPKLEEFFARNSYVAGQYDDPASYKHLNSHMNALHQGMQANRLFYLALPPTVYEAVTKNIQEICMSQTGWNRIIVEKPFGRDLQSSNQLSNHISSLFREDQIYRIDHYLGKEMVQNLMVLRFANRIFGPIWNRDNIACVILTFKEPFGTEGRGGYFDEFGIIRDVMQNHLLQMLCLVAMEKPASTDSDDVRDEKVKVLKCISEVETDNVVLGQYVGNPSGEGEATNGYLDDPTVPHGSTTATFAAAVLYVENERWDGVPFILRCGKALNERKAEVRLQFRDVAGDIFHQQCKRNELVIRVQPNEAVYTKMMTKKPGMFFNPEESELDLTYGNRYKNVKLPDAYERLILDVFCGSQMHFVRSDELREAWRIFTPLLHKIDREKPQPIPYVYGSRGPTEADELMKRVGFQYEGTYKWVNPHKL

Structure (SMILES)	inhibition at 25 µM [%]	inhibition at 50 µM [%]	inhibition at 100 µM (100 µM) [%]
C[C@]12CC[C@H](O)CC1=CC[C@@H]1[C@@H]2CC[C@]2(C)C(=O)CC[C@@H]12 [DHEA, dehydroepiandrosterone]	77 ± 3	82 ± 3	93 ± 3
C[C@]12CC[C@H](O)C[C@@H]1CC[C@@H]1[C@@H]2CC[C@]2(C)C(=O)[C@H](Br)C[C@@H]12 [16α-BrEA, 16α-bromoepiandrosterone]	49	71 ± 8	
